Drawing on ChEMBL document CHEMBL2010789, “Identification of 3-acyl-2-phenylamino-1,4-dihydroquinolin-4-one derivatives as inhibitors of the phosphatase SerB653 in Porphyromonas gingivalis, implicated in periodontitis” (Bioorg Med Chem Lett, 2012), this text covers IC50 and inhibition for 31 compounds.

pIC50: −log10 of the molar value.

Test system in the first assay: not listed separately
Nature of the assay: Inhibition of Porphyromonas gingivalis recombinant SerB653 phosphatase expressed in Escherichia coli BL21 using phosphoserine as substrate after 1 hr by malachite green colorimetric assay.
The pIC50 is −log10 of the IC50, conventionally taken in molar units. Take `CC(=O)c1c(Nc2cc(Cl)ccc2Cl)[nH]c2c(Cl)ccc([N+](=O)[O-])c2c1=O`: the pIC50 is 4.72. Turning to `CC(C)CC(=O)c1c(Nc2cc(Cl)cc(Cl)c2)[nH]c2c(Cl)ccc([N+](=O)[O-])c2c1=O`, the pIC50 was 4.73.

Turning to `O=C(c1c(Nc2ccc(Cl)cc2Cl)[nH]c2c(Cl)ccc([N+](=O)[O-])c2c1=O)C1CC1`, the pIC50 is 4.75. The same measure, in the same setting: the result for `O=C(c1c(Nc2cc(Cl)ccc2Cl)[nH]c2c(Cl)ccc([N+](=O)[O-])c2c1=O)C1CC1` reads 4.73; that for `CC(C)C(=O)c1c(Nc2ccc(Cl)cc2F)[nH]c2c(Cl)ccc([N+](=O)[O-])c2c1=O`, 4.78; that for `O=C(c1c(Nc2cc(Cl)cc(Cl)c2)[nH]c2c(Cl)ccc([N+](=O)[O-])c2c1=O)C1CC1`, 4.77. For the compound `CC(=O)c1c(Nc2cc(F)cc(F)c2)[nH]c2c([N+](=O)[O-])cc(Cl)cc2c1=O`, the pIC50 is 4.75.

As for `CC(C)CC(=O)c1c(Nc2ccc(Cl)cc2F)[nH]c2c(Cl)ccc([N+](=O)[O-])c2c1=O`, the pIC50 is 4.71. Consider `CC(=O)c1c(Nc2ccccc2Cl)[nH]c2c(C(F)(F)F)cc(Cl)cc2c1=O`, for which the negative logarithm of the IC50 (pIC50) is 4.77. As to `CC(C)C(=O)c1c(Nc2cccc(Cl)c2Cl)[nH]c2c(Cl)ccc([N+](=O)[O-])c2c1=O`, the negative logarithm of the IC50 (pIC50) is 4.72. With `CCC(=O)c1c(Nc2ccc(Cl)cc2F)[nH]c2c(Cl)ccc([N+](=O)[O-])c2c1=O`, the pIC50 was 4.70. Turning to `CC(=O)c1c(Nc2ccc(Cl)cc2Cl)[nH]c2c(C(F)(F)F)cccc2c1=O`, the negative logarithm of the IC50 (pIC50) is 4.73.

In another assay the test system is Porphyromonas gingivalis. Kind of assay: Inhibition of Porphyromonas gingivalis recombinant SerB653 phosphatase expressed in Escherichia coli BL21 using phosphoserine as substrate at 50 uM after 1 hr by malachite green colorimetric assay.
What is called inhibition is how much of the control response was suppressed. With `COc1ccc(Nc2[nH]c3c([N+](=O)[O-])cc(Cl)cc3c(=O)c2C(C)=O)cc1`, the inhibition turned out to be 6.2%. Still for that read-out and setting: in the case of `CC(=O)c1c(Nc2ccc(F)cc2F)[nH]c2c(Cl)ccc(F)c2c1=O` it was 9.1%; in that of `CC(=O)c1c(Nc2ccccc2)[nH]c2c([N+](=O)[O-])cc(Cl)cc2c1=O`, 3.1%; in that of `CC(=O)c1c(Nc2ccc(F)cc2)[nH]c2c([N+](=O)[O-])cc(Cl)cc2c1=O`, 9.3%.

Take `CC(=O)c1c(Nc2ccc(F)c(F)c2F)[nH]c2c(Cl)ccc(C)c2c1=O`: the inhibition was 32.4%.

On to `CC(=O)c1c(Nc2cccc(C)c2)[nH]c2c(Cl)c(Cl)ccc2c1=O`, for which the inhibition was 1.6%.

For `CC(=O)c1c(Nc2ccc(Cl)cc2F)[nH]c2c(Cl)ccc(C)c2c1=O`, the inhibition was found to be 24.5%. Same read-out and setting: in the case of `CC(=O)c1c(Nc2ccc(F)cc2F)[nH]c2c(F)ccc(F)c2c1=O` it was 0%; in that of `CC(=O)c1c(Nc2ccccc2)[nH]c2c(Cl)c(Cl)ccc2c1=O`, 4.8%. `CC(=O)c1c(Nc2cccc(F)c2C)[nH]c2c(F)ccc(F)c2c1=O`: the inhibition was 0%.

With `CC(=O)c1c(Nc2cc(Cl)cc(Cl)c2)[nH]c2c(C)ccc(Cl)c2c1=O`, the inhibition is 8.6%. Take `CC(=O)c1c(Nc2ccc(F)cc2F)[nH]c2c(C)ccc(Cl)c2c1=O`: the inhibition was found to be 2.3%. For `CC(=O)c1c(Nc2cc(Cl)ccc2Cl)[nH]c2c(Cl)ccc([N+](=O)[O-])c2c1=O`, the inhibition was 98.3%.

For `CC(=O)c1c(Nc2cc(F)ccc2F)[nH]c2c(F)ccc(F)c2c1=O`, the inhibition worked out at 7.9%. In the case of `CC(C)CC(=O)c1c(Nc2cc(Cl)cc(Cl)c2)[nH]c2c(Cl)ccc([N+](=O)[O-])c2c1=O`, the inhibition came out at 99.1%. For the compound `CC(=O)c1c(Nc2ccc(C)cc2)[nH]c2c([N+](=O)[O-])cc(Cl)cc2c1=O`, the inhibition was 2.2%. On to `O=C(c1c(Nc2ccc(Cl)cc2Cl)[nH]c2c(Cl)ccc([N+](=O)[O-])c2c1=O)C1CC1`, for which the inhibition came to 98.1%. On the same count and under the same terms, the result for `CC(=O)c1c(Nc2ccc(Br)cc2)[nH]c2c(F)ccc(F)c2c1=O` reads 1.4%; that for `COc1cccc(Nc2[nH]c3c(Cl)c(Cl)ccc3c(=O)c2C(C)=O)c1`, 3.6%; that for `O=C(c1c(Nc2cc(Cl)ccc2Cl)[nH]c2c(Cl)ccc([N+](=O)[O-])c2c1=O)C1CC1`, 98.2%.

As to `CC(C)C(=O)c1c(Nc2ccc(Cl)cc2F)[nH]c2c(Cl)ccc([N+](=O)[O-])c2c1=O`, the inhibition turned out to be 94.3%. For the compound `O=C(c1c(Nc2cc(Cl)cc(Cl)c2)[nH]c2c(Cl)ccc([N+](=O)[O-])c2c1=O)C1CC1`, the inhibition was 99.4%. Consider `CC(=O)c1c(Nc2cc(F)cc(F)c2)[nH]c2c([N+](=O)[O-])cc(Cl)cc2c1=O`, for which the inhibition was 92.2%. Turning to `CC(C)CC(=O)c1c(Nc2ccc(Cl)cc2F)[nH]c2c(Cl)ccc([N+](=O)[O-])c2c1=O`, the inhibition came to 97.3%.

For the compound `CC(=O)c1c(Nc2ccc(C(C)(C)C)cc2)[nH]c2c([N+](=O)[O-])cc(Cl)cc2c1=O`, the inhibition stood at 0%. As for `COc1cccc(Nc2[nH]c3c([N+](=O)[O-])cc(Cl)cc3c(=O)c2C(C)=O)c1`, the inhibition came out at 0%. As for `CC(=O)c1c(Nc2cc(F)cc(F)c2)[nH]c2c(F)ccc(F)c2c1=O`, the inhibition was determined as 5.9%. Consider `CC(=O)c1c(Nc2ccccc2Cl)[nH]c2c(C(F)(F)F)cc(Cl)cc2c1=O`, for which the inhibition came out at 89.1%. Still for that read-out and setting: the result for `CC(C)C(=O)c1c(Nc2cccc(Cl)c2Cl)[nH]c2c(Cl)ccc([N+](=O)[O-])c2c1=O` reads 96.3%. As to `CCC(=O)c1c(Nc2ccc(Cl)cc2F)[nH]c2c(Cl)ccc([N+](=O)[O-])c2c1=O`, the inhibition was found to be 94.9%. On the same count and under the same terms, in the case of `CC(=O)c1c(Nc2ccc(Cl)cc2Cl)[nH]c2c(C(F)(F)F)cccc2c1=O` it was 96.3%.
